We go through 9 compounds from patent US9636418B2 (priority 2013, dated 2017).

Values joined by “and” are separate entries in the source; they are usually repeats but may differ in a detail not shown here. Identical values can stand only once.

Assay in all cases: cell-based
Assay [1] has as its target hNav1.3 (Homo sapiens, UniProt Q9NY46). As to conditions: IonWorks Quattro; read-out: IC50 Nav1.3. For orientation: The patch-clamp technique gives a direct electrical read-out from membranes.
The target of assay [2] is hNav1.7 (Homo sapiens, UniProt Q15858). The note with it: IonWorks Quattro; read-out: IC50 Nav1.7.
Assay [3] addresses hNav1.5 (Homo sapiens, UniProt Q14524). As to conditions: IonWorks Quattro; read-out: IC50 Nav1.5.
Assay [4] concerns the target hNav1.4 (Homo sapiens, UniProt P35499). As to conditions: for IC50: IonWorks Quattro, read-out: IC50 Nav1.4.

hNav1.4, sequence (P35499 whole entry): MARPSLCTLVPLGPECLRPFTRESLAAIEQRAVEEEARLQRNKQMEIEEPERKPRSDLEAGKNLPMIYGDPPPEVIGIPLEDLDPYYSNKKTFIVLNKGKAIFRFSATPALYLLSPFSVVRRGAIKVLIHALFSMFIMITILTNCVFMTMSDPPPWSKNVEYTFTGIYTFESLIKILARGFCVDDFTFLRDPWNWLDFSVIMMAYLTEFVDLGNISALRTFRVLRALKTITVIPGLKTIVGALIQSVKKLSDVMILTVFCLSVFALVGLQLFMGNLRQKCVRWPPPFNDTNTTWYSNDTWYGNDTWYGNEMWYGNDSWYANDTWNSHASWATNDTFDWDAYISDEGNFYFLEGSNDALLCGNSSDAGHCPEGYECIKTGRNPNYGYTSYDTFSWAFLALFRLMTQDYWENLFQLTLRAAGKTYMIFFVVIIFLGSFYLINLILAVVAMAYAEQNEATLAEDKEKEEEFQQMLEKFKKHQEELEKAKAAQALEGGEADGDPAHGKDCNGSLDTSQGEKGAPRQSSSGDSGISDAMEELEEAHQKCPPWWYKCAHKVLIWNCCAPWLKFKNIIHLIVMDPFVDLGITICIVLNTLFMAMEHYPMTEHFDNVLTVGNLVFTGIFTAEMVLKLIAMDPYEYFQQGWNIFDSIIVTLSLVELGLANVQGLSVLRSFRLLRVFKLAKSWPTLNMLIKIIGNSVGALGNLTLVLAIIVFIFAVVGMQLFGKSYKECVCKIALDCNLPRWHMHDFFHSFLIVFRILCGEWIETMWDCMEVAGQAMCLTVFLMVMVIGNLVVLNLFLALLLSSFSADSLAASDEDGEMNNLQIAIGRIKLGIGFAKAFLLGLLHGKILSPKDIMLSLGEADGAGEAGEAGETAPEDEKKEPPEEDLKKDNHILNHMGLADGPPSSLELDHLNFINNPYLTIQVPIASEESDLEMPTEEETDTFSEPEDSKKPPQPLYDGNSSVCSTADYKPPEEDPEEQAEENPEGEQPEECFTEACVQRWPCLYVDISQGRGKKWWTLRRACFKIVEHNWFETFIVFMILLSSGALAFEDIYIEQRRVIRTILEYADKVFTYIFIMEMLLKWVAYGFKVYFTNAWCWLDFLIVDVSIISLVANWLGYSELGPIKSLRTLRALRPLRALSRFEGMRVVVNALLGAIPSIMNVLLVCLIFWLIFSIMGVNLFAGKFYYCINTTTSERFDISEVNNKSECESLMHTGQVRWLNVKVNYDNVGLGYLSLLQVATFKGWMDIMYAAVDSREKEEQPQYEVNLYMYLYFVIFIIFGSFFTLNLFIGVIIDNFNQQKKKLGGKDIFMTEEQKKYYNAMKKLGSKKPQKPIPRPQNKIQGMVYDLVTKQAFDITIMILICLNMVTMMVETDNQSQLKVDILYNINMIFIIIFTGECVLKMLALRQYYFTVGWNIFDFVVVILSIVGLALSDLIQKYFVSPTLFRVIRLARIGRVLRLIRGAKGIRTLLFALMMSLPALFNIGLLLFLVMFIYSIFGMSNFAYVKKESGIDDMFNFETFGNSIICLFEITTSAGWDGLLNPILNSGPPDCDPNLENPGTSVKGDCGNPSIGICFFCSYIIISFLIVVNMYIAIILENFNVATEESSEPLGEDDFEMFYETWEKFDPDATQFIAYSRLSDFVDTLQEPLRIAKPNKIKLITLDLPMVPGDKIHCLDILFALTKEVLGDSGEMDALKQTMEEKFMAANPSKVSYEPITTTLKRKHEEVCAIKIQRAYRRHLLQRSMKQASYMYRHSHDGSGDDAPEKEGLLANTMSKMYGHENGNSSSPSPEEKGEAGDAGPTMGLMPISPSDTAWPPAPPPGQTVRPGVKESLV
hNav1.7, sequence (Q15858 whole entry): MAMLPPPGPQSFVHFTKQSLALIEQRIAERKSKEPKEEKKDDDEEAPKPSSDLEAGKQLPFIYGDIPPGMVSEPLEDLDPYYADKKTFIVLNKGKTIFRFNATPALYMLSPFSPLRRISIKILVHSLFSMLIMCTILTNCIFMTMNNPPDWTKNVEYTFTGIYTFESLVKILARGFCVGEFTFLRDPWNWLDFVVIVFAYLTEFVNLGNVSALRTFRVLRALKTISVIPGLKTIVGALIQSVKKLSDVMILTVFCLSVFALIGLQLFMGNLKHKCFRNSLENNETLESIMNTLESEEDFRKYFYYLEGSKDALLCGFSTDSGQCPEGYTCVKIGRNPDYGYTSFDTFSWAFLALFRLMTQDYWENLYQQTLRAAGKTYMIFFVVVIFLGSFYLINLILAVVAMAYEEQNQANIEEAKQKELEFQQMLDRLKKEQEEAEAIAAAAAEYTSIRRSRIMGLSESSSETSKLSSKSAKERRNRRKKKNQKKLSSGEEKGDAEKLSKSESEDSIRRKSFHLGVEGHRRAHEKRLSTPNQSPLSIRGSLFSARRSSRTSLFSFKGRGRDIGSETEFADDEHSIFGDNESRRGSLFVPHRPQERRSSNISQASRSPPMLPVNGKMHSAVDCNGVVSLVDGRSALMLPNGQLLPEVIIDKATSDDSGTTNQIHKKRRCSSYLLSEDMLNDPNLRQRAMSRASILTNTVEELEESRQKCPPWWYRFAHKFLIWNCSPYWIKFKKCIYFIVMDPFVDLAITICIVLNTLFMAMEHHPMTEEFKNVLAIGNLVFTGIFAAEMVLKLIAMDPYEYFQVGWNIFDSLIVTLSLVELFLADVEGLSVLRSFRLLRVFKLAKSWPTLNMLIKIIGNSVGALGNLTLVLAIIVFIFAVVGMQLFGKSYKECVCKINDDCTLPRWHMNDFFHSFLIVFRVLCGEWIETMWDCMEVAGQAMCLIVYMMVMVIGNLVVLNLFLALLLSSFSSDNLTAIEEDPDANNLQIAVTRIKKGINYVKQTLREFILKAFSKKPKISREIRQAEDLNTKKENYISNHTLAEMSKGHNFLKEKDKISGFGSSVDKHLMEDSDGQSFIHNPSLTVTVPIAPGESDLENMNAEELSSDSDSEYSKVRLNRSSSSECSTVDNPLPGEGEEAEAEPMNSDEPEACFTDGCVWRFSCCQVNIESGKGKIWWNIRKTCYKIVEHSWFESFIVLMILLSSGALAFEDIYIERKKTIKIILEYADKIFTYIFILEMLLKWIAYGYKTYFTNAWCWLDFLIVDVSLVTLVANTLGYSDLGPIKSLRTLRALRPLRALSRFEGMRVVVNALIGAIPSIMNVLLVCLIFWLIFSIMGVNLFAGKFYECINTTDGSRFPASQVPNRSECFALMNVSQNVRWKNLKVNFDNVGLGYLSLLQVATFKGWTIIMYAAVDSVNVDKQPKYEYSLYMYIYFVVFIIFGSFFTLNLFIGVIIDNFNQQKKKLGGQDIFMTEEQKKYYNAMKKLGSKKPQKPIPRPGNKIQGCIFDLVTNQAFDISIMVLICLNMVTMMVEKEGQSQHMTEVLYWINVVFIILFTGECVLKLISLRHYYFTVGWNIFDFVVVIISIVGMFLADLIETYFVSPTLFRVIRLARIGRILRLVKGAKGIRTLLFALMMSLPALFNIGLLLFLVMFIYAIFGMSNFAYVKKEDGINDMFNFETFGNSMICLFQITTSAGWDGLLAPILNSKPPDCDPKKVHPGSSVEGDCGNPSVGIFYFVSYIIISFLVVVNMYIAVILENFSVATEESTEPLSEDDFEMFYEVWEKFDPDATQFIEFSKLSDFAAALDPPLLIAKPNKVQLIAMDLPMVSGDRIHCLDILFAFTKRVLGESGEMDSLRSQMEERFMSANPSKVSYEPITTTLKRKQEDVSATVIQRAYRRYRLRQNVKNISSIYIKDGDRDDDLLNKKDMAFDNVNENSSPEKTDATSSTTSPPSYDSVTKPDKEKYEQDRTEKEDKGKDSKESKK

With `CC[C@H](C)[C@H](NC(=O)[C@H](Cc1ccc(O)cc1)NC(=O)[C@H](CCCCN)NC(=O)[C@H](CCCNC(=N)N)NC(=O)[C@@H]1CSSC[C@@H]2NC(=O)[C@H](C)NC(=O)[C@H](CCCNC(=N)N)NC(=O)[C@H](CCCCN)NC(=O)[C@H](CO)NC(=O)[C@H](CC(=O)O)NC(=O)[C@@H]3CSSC[C@H](NC(=O)[C@H](CCC(=O)O)NC(=O)[C@H](CC(C)C)NC(=O)CNC(=O)[C@H](CCC(=O)O)NC(=O)[C@H](CSSC[C@H](NC(=O)[C@@H](N)Cc4ccc(O)cc4)C(=O)N[C@@H](CCC(N)=O)C(=O)N[C@@H](CCCCN)C(=O)N[C@@H](CC(N)=O)C(=O)N[C@@H](CCSC)C(=O)N[C@@H](Cc4c[nH]c5ccccc45)C(=O)N[C@@H]([C@@H](C)O)C(=O)N3)NC2=O)C(=O)N[C@@H](CCCCN)C(=O)N[C@@H](CC(C)C)C(=O)N[C@@H](Cc2c[nH]c3ccccc23)C(=O)N1)C(N)=O` [compound 201], the IC50 (as a rule, the point on the concentration scale where inhibition reaches its midpoint) was greater than 5 µM in assay [1]; 4.2 µM and > 5 µM in assay [2]; greater than 5 µM in assay [3]; greater than 5 µM in assay [4].
For the compound `CC[C@H](C)[C@H](NC(=O)[C@H](Cc1ccc(O)cc1)NC(=O)[C@H](CCCCN)NC(=O)[C@H](CCCNC(=N)N)NC(=O)[C@@H]1CSSC[C@@H]2NC(=O)[C@H](C)NC(=O)[C@H](CCCNC(=N)N)NC(=O)[C@H](CCCCN)NC(=O)[C@H](CO)NC(=O)[C@H](CC(=O)O)NC(=O)[C@@H]3CSSC[C@H](NC(=O)[C@H](CCC(=O)O)NC(=O)[C@H](CC(C)C)NC(=O)CNC(=O)[C@H](CCC(=O)O)NC(=O)[C@H](CSSC[C@H](NC(=O)[C@@H](N)Cc4ccc(O)cc4)C(=O)N[C@@H](CCC(N)=O)C(=O)N[C@@H](CCCCN)C(=O)N[C@@H](CCC(=O)O)C(=O)N[C@@H](CCSC)C(=O)N[C@@H](Cc4c[nH]c5ccccc45)C(=O)N[C@@H]([C@@H](C)O)C(=O)N3)NC2=O)C(=O)N[C@@H](CCCCN)C(=O)N[C@@H](CC(C)C)C(=O)N[C@@H](Cc2c[nH]c3ccccc23)C(=O)N1)C(N)=O` [compound 203], the half-maximal inhibitory concentration (IC50) in assay [1], in assay [2], in assay [3] and in assay [4] was greater than 7 µM in each case.
For `CCC[C@@H]1NC(=O)[C@H](CCSC)NC(=O)[C@H](Cc2c[nH]c3ccccc23)NC(=O)[C@H](CCCCN)NC(=O)[C@H](CCC(N)=O)NC(=O)[C@@H](NC(=O)[C@@H](N)Cc2ccc(O)cc2)CSSC[C@@H]2NC(=O)[C@@H]3CSSC[C@@H](C(=O)N[C@@H](CCCNC(=N)N)C(=O)N[C@@H](CCCCN)C(=O)N[C@@H](Cc4ccc(O)cc4)C(=O)N[C@H](C(N)=O)[C@@H](C)CC)NC(=O)[C@H](Cc4c[nH]c5ccccc45)NC(=O)[C@H](CC(C)C)NC(=O)[C@H](CCCCN)NC(=O)[C@H](CSSC[C@H](NC(=O)[C@H]([C@@H](C)O)NC1=O)C(=O)N[C@@H](CC(=O)O)C(=O)N[C@@H](CO)C(=O)N[C@@H](CCCCN)C(=O)N[C@@H](CCCNC(=N)N)C(=O)N[C@@H](C)C(=O)N3)NC(=O)[C@H](CCC(=O)O)NC(=O)[C@H](CC(C)C)NC(=O)CNC(=O)[C@H](CCC(=O)O)NC2=O` [compound 212], the half-maximal inhibitory concentration (IC50) in assay [1] was greater than 7 µM; in assay [2], 4.5 µM; in assay [3], greater than 7 µM; in assay [4], greater than 7 µM.
For the compound `CC[C@H](C)[C@H](NC(=O)[C@H](Cc1ccc(O)cc1)NC(=O)[C@H](CCCCN)NC(=O)[C@H](CCCNC(=N)N)NC(=O)[C@@H]1CSSC[C@@H]2NC(=O)[C@H](C)NC(=O)[C@H](CCCNC(=N)N)NC(=O)[C@H](CCCCN)NC(=O)[C@H](CO)NC(=O)[C@H](CC(=O)O)NC(=O)[C@@H]3CSSC[C@H](NC(=O)[C@H](CCC(=O)O)NC(=O)[C@H](CC(C)C)NC(=O)CNC(=O)[C@H](CCC(=O)O)NC(=O)[C@H](CSSC[C@H](NC(=O)[C@@H](N)Cc4ccc(O)cc4)C(=O)N[C@@H](CCC(N)=O)C(=O)N[C@@H](CCCCN)C(=O)N[C@@H](Cc4c[nH]c5ccccc45)C(=O)N[C@@H](CCSC)C(=O)N[C@@H](CCCNC(N)=O)C(=O)N[C@@H]([C@@H](C)O)C(=O)N3)NC2=O)C(=O)N[C@@H](CCCCN)C(=O)N[C@@H](CC(C)C)C(=O)N[C@@H](Cc2c[nH]c3ccccc23)C(=O)N1)C(N)=O` [compound 213], the IC50 in assay [1] is greater than 7 µM; in assay [2], 5.8 µM; in assay [3] it was greater than 7 µM; in assay [4] it was greater than 7 µM.
Take `CC[C@H](C)[C@H](NC(=O)[C@H](Cc1ccc(O)cc1)NC(=O)[C@H](CCCCN)NC(=O)[C@H](CCCNC(=N)N)NC(=O)[C@@H]1CSSC[C@@H]2NC(=O)[C@H](C)NC(=O)[C@H](CCCNC(=N)N)NC(=O)[C@H](CCCCN)NC(=O)[C@H](CO)NC(=O)[C@H](CC(=O)O)NC(=O)[C@@H]3CSSC[C@H](NC(=O)[C@H](CCC(=O)O)NC(=O)[C@H](CC(C)C)NC(=O)CNC(=O)[C@H](CCC(=O)O)NC(=O)[C@H](CSSC[C@H](NC(=O)[C@@H](N)Cc4ccc(O)cc4)C(=O)N[C@@H](CCC(N)=O)C(=O)N[C@@H](CCCCN)C(=O)N[C@@H](Cc4c[nH]c5ccccc45)C(=O)N[C@@H](CCSC)C(=O)N[C@@H](CCCCN)C(=O)N[C@@H]([C@@H](C)O)C(=O)N3)NC2=O)C(=O)N[C@@H](CCCCN)C(=O)N[C@@H](CC(C)C)C(=O)N[C@@H](Cc2c[nH]c3ccccc23)C(=O)N1)C(N)=O` [compound 214]: the half-inhibitory concentration (IC50) in assay [1] was greater than 7 µM; in assay [2], 2.7 µM; in assay [3], greater than 7 µM; in assay [4] it was greater than 7 µM.
With `CC[C@H](C)[C@H](NC(=O)[C@H](Cc1ccc(O)cc1)NC(=O)[C@H](CCCCN)NC(=O)[C@H](CCCNC(=N)N)NC(=O)[C@@H]1CSSC[C@@H]2NC(=O)[C@H](C)NC(=O)[C@H](CCCNC(=N)N)NC(=O)[C@H](CCCCN)NC(=O)[C@H](CO)NC(=O)[C@H](CC(=O)O)NC(=O)[C@@H]3CSSC[C@H](NC(=O)[C@H](CCC(=O)O)NC(=O)[C@H](CC(C)C)NC(=O)CNC(=O)[C@H](CCC(=O)O)NC(=O)[C@H](CSSC[C@H](NC(=O)[C@@H](N)Cc4ccc(O)cc4)C(=O)N[C@@H](CCC(N)=O)C(=O)N[C@@H](CCCCN)C(=O)N[C@@H](Cc4c[nH]c5ccccc45)C(=O)N[C@@H](CCSC)C(=O)N[C@@H](CC(N)=O)C(=O)N[C@@H]([C@@H](C)O)C(=O)N3)NC2=O)C(=O)N[C@@H](CCCCN)C(=O)N[C@@H](CC(C)C)C(=O)N[C@@H](Cc2c[nH]c3ccccc23)C(=O)N1)C(N)=O` [compound 215], the concentration for half-maximal inhibition (IC50) is greater than 7 µM in assay [1], 5 µM in assay [2], greater than 7 µM in assay [3] and 6.1 µM in assay [4]. In addition, the Nav1.4/Nav1.7 in assay [4] (ratio of IonWorks Quattro IC50 values) came out at 1.
In the case of `CC[C@H](C)[C@H](NC(=O)[C@H](Cc1ccc(O)cc1)NC(=O)[C@H](CCCCN)NC(=O)[C@H](CCCNC(=N)N)NC(=O)[C@@H]1CSSC[C@@H]2NC(=O)[C@H](C)NC(=O)[C@H](CCCNC(=N)N)NC(=O)[C@H](CCCCN)NC(=O)[C@H](CO)NC(=O)[C@H](CC(=O)O)NC(=O)[C@@H]3CSSC[C@H](NC(=O)[C@H](CCC(=O)O)NC(=O)[C@H](CC(C)C)NC(=O)CNC(=O)[C@H](CCC(=O)O)NC(=O)[C@H](CSSC[C@H](NC(=O)[C@@H](N)Cc4ccc(O)cc4)C(=O)N[C@@H](CCC(N)=O)C(=O)N[C@@H](CCCCN)C(=O)N[C@@H](Cc4c[nH]c5ccccc45)C(=O)N[C@@H](CCSC)C(=O)N[C@@H](CO)C(=O)N[C@@H]([C@@H](C)O)C(=O)N3)NC2=O)C(=O)N[C@@H](CCCCN)C(=O)N[C@@H](CC(C)C)C(=O)N[C@@H](Cc2c[nH]c3ccccc23)C(=O)N1)C(N)=O` [compound 216], the IC50 in assay [1] was greater than 7 µM; in assay [2], 4.7 µM and 6.6 µM; in assay [3] it was > 7 µM and 5.4 µM; in assay [4], greater than 7 µM.
With `CC[C@H](C)[C@H](NC(=O)[C@H](Cc1ccc(O)cc1)NC(=O)[C@H](CCCCN)NC(=O)[C@H](CCCNC(=N)N)NC(=O)[C@@H]1CSSC[C@@H]2NC(=O)[C@H](C)NC(=O)[C@H](CCCNC(=N)N)NC(=O)[C@H](CCCCN)NC(=O)[C@H](CO)NC(=O)[C@H](CC(=O)O)NC(=O)[C@@H]3CSSC[C@H](NC(=O)[C@H](CCC(=O)O)NC(=O)[C@H](CC(C)C)NC(=O)CNC(=O)[C@H](CCC(=O)O)NC(=O)[C@H](CSSC[C@H](NC(=O)[C@@H](N)Cc4ccc(O)cc4)C(=O)N[C@@H](CCC(N)=O)C(=O)N[C@@H](CCCCN)C(=O)N[C@@H](Cc4c[nH]c5ccccc45)C(=O)N[C@@H](CCSC)C(=O)N[C@@H](CCC(=O)O)C(=O)N[C@@H]([C@@H](C)O)C(=O)N3)NC2=O)C(=O)N[C@@H](CCCCN)C(=O)N[C@@H](CC(C)C)C(=O)N[C@@H](Cc2c[nH]c3ccccc23)C(=O)N1)C(N)=O` [compound 217], the IC50 in assay [1], in assay [2], in assay [3] and in assay [4] was greater than 7 µM each time.
Turning to `CC[C@H](C)[C@H](NC(=O)[C@H](Cc1ccc(O)cc1)NC(=O)[C@H](CCCCN)NC(=O)[C@H](CCCNC(=N)N)NC(=O)[C@@H]1CSSC[C@@H]2NC(=O)[C@H](C)NC(=O)[C@H](CCCNC(=N)N)NC(=O)[C@H](CCCCN)NC(=O)[C@H](CO)NC(=O)[C@H](CC(=O)O)NC(=O)[C@@H]3CSSC[C@H](NC(=O)[C@H](CCC(=O)O)NC(=O)[C@H](CC(C)C)NC(=O)CNC(=O)[C@H](CCC(=O)O)NC(=O)[C@H](CSSC[C@H](NC(=O)[C@@H](N)Cc4ccc(O)cc4)C(=O)N[C@@H](CCC(N)=O)C(=O)N[C@@H](CCCCN)C(=O)N[C@@H](Cc4c[nH]c5ccccc45)C(=O)N[C@@H](CCSC)C(=O)N[C@@H](Cc4c[nH]c5ccccc45)C(=O)N[C@@H]([C@@H](C)O)C(=O)N3)NC2=O)C(=O)N[C@@H](CCCCN)C(=O)N[C@@H](CC(C)C)C(=O)N[C@@H](Cc2ccc3ccccc3c2)C(=O)N1)C(N)=O` [compound 219], the IC50 in assay [1] is greater than 7 µM; in assay [2] it was 0.86 µM and 1 µM; in assay [3], greater than 7 µM; in assay [4], greater than 7 µM.
